In ChEMBL document CHEMBL1149715, “Inhibition of the Mycobacterium tuberculosis enoyl acyl carrier protein reductase InhA by arylamides” (Bioorg Med Chem, 2007):
In brackets after ≈: the same amount, converted by molar mass.

Experiments:
[1] = biological target: T1, Enoyl-[acyl-carrier-protein] reductase [NADH] (Mycobacterium tuberculosis, UniProt P9WGR1)
T1 sequence (P9WGR1 whole entry): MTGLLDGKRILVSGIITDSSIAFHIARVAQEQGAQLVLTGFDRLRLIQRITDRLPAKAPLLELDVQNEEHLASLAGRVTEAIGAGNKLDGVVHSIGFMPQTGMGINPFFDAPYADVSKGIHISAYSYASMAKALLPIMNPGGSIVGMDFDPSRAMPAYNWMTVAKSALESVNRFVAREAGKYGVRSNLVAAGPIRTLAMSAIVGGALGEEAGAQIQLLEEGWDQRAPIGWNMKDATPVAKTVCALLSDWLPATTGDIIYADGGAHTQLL
Description: Inhibition of Mycobacterium tuberculosis InhA

[2] = tested on: Mycobacterium tuberculosis; experiment: Antibacterial activity against Mycobacterium tuberculosis H37Rv by Alamar blue assay; assay type: functional

Work on `Cc1cccc(C(=O)N2CCN(c3cccc(Cl)c3)CC2)c1` yielded an IC50 [1] of 9.43 µM.

`O=C(c1ccccc1)N1CCN(C2c3ccccc3-c3ccccc32)CC1` showed an IC50 [1] of 0.09 µM.

`Cc1ccc(C(=O)N2CCN(c3cccc(Cl)c3)CC2)cc1C` showed an IC50 [1] of 0.99 µM.

With `O=C(c1ccccc1)N1CCN(C(c2ccc(F)cc2)c2ccc(F)cc2)CC1` the MIC [2] was 125 µM (≈ 49.1 µg/mL) and the IC50 [1] was 2.04 µM.

Molecule `O=C(c1cccc(Cl)c1)N1CCC(Cc2ccccc2)CC1` has an IC50 [1] of 7.74 µM.

`Cc1cccc(C(=O)N2CCN(c3ccc([N+](=O)[O-])cc3)CC2)c1` showed an MIC [2] of 125 µM (≈ 40.7 µg/mL) and an IC50 [1] of 15.5 µM.

For `CC(C)c1ccc(C(=O)N2CCN(c3cccc(Cl)c3)CC2)cc1`, the IC50 [1] was > 100 µM.

`Cc1cccc(C(=O)N2CCC(Cc3ccccc3)CC2)c1` was tested, and the IC50 [1] was 7.39 µM.

In the case of `Cc1ccc(C(=O)N2CCN(c3cccc(Cl)c3)CC2)cc1`, the IC50 [1] is reported as 3.07 µM.

For `CC(C)(C)c1ccc(C(=O)N2CCN(c3cccc(Cl)c3)CC2)cc1`, the IC50 [1] was > 100 µM.

`O=C(c1ccc2[nH]ccc2c1)N1CCN(C(c2ccc(F)cc2)c2ccc(F)cc2)CC1` was tested, and the MIC [2] was 62.5 µM (≈ 27 µg/mL) and the IC50 [1] was 1.04 µM.

With `Cc1ccc(C(=O)N2CCN(C(c3ccc(F)cc3)c3ccc(F)cc3)CC2)cc1` the IC50 [1] was 1.89 µM.

For `O=C(c1ccccc1F)N1CCC(Cc2ccccc2)CC1`, the IC50 [1] was 14.1 µM.

`O=C(c1ccc(Cl)c(Cl)c1)N1CCN(c2ccccc2)CC1` gave an IC50 [1] of 17.6 µM.

`O=C(c1ccccc1)N1CCN(c2ccccc2)CC1` was tested, and the IC50 [1] was 38.9 µM.

Molecule `Cc1ccc(C(=O)N2CCC(Cc3ccccc3)CC2)cc1` has an IC50 [1] of 5.16 µM.

`CC(C)(C)c1ccc(C(=O)N2CCN(c3cccc(C(F)(F)F)c3)CC2)cc1` was tested, and the IC50 [1] was > 100 µM.

`O=C(c1ccccc1F)N1CCN(c2cccc(Cl)c2)CC1` was tested, and the IC50 [1] was 13.9 µM.

In the case of `Cc1ccc(C(=O)N2CCN(c3cccc(C(F)(F)F)c3)CC2)cc1C`, the IC50 [1] is reported as 1.85 µM.

Work on `Cc1ccc(C(=O)N2CCN(c3ccccc3)CC2)cc1` yielded an IC50 [1] of 16.6 µM.

Molecule `O=C(c1ccc(F)cc1)N1CCN(c2cccc(Cl)c2)CC1` has an IC50 [1] of 9.74 µM.

Molecule `O=C(c1ccc(Cl)c(Cl)c1)N1CCN(c2cccc(Cl)c2)CC1` has an IC50 [1] of 6.05 µM.

`Cc1ccc(C(=O)N2CCN(c3cccc(C(F)(F)F)c3)CC2)cc1` gave an IC50 [1] of 6.26 µM.

`Cc1ccc(C(=O)N2CCN(C3c4ccccc4-c4ccccc43)CC2)cc1` was tested, and the IC50 [1] was 0.4 µM.

Work on `O=C(c1ccccc1)N1CCN(Cc2ccccc2)CC1` yielded an IC50 [1] of 31.5 µM.

Molecule `O=C(c1cccc(Cl)c1)N1CCN(c2cccc(Cl)c2)CC1` has an IC50 [1] of 6.73 µM.

For `Cc1ccc(N2CCN(C(=O)c3ccc(C(C)(C)C)cc3)CC2)cc1Cl`, the IC50 [1] was > 100 µM.
